Data as given in patent US20240376123A1, “KRAS G12D INHIBITORS AND USES THEREOF” (SUZHOU ZANRONG PHARMA LIMITED, priority 2021, published 2024).

Legend:
[1] = test system: HPAC (ATCC CRL-2119) cells; experiment: KRAS G12D 3D CellTiter-Glo proliferation assay, HPAC; format: cell-based; settings: Homo sapiens, 168 h, 3D proliferation, 7 days, CellTiter-Glo 3D
Description: (§1) HPAC (ATCC CRL-2119) and AsPC-1 (ATCC CRL-1682) cells were purchased from ATCC, and each cell was cultured in medium supplemented with 10% fetal bovine serum (FBS), according to the protocol recommended by the manufacture. Serially diluted compound was added to 384-well Ultra-Low Attachment Surface round bottom plate (Corning). 400 cells/well were seeded in plate and incubated at 37° C., 5% CO2 for 7 days. Cell viability was measured using a CellTiter-Glo® 3D Cell Viability Assay kit (Promega) according to the manufacturer's protocol.
(§2) The 2D and 3D proliferation data of the exemplary compounds of the present disclosure in different cell lines are shown in Table 3.

[2] = test system: GP2D (Cobioer CBP60010) cells; experiment: KRAS G12D 2D CellTiter-Glo proliferation assay, GP2D; format: cell-based; settings: 2D proliferation, 72 hours
Description: (§3) AsPC-1 (ATCC CRL-1682) and LS513 (ATCC CRL-2134) cells were purchased from ATCC, GP2D (Cobioer CBP60010) cells was purchased from Cobioer biosciences CO., LTD, and each cell was cultured in medium supplemented with 10% fetal bovine serum (FBS), according to the protocol recommended by the manufacture. Cells were seeded 800 cells/well in 384-well plates (Corning) and incubated at 37° C., 5% CO2 for 18 hours. Serially diluted compound was added to the cells, and plates were incubated at 37° C., 5% CO2 for 72 hours. Cell viability was measured using a CellTiter-Glo® Luminescent Cell Viability Assay kit (Promega) according to the manufacturer's protocol.
as §2

[3] = test system: AsPC-1 (ATCC CRL-1682) cells; experiment: KRAS G12D 2D CellTiter-Glo proliferation assay, AsPC-1; format: cell-based; settings: Homo sapiens, ASPC1, 2D proliferation, 72 hours
Description: as §3, §2

[4] = test system: LS513 (ATCC CRL-2134) cells; experiment: KRAS G12D 2D CellTiter-Glo proliferation assay, LS513; format: cell-based; settings: Homo sapiens, LS-513, 2D proliferation, 72 hours
Description: as §3, §2

[5] = test system: AsPC-1 (ATCC CRL-1682) cells; experiment: KRAS G12D 3D CellTiter-Glo proliferation assay, AsPC-1; format: cell-based; settings: Homo sapiens, ASPC1, 168 h; 3D proliferation, 7 days, CellTiter-Glo 3D
Description: as §1, §2

WT-KRAS cell line MKN-1 = experiment: Phospho-ERK 1/2 assay, WT-KRAS cell line MKN-1 (Table 2); format: cell-based; settings: for IC50: Homo sapiens, WT-KRAS cell line MKN-1, p-ERK; for Selectivity Fold: selectivity over WT-KRAS cell line MKN-1 vs Panc-1 p-ERK
Description: (§4) Allow PNAC-1/HPAC cell growth in a T75 flask in DMEM and 10% 1 fetal calf serum (FCS; Gibco), using standard tissue culture procedures until ˜80% confluency is achieved. Day 1, seed 6000 cells/well in 384 well plate and incubate at 37° C., 5% CO2. Add diluted compound by Echo 550, final DMSO is 0.5%, incubate cells at 37° C., 5% CO2 for 3 hours. Then, remove medium and fix cells with 3.7% formaldehyde in PBS (PFA) by Apricot. Wash with PBS once. Permeabilize cells with cold 100% methanol and repeat wash once with PBS once. Add Li-Cor blocking buffer to each well and incubate 1.5 hours at RT. Remove blocking buffer and add primary antibody mixture (rabbit anti pERK, mouse anti GAPDH). Incubate at 4° C. overnight. Day 2, wash with PBST (Tween-20 in PBS) with total 3 times and then add secondary antibody mixture (goat anti rabbit 800CW (1:800 dilution in the combined solution) and goat anti mouse 680RD (1:800 dilution in the combined solution)), incubate for 60 minutes at RT away from light. Repeat washing with PBST 3 times. After final wash, centrifuge plate up-side-down at 1000 rpm to remove wash solution completely from wells. Before plate scanning, clean the bottom plate surface and the Odyssey* Imager scanning bed (if applicable) with moist, lint-free tissue to avoid any obstructions during scanning. Scan plate with detection in both 700 and 800 nm channels.
(§5) Table 2 describes the p-ERK IC50 values and selectivity over WT-KRAS cell line MKN-1 of the exemplary compounds of the present disclosure and reference compound MRTX-1133.

Panc-1 p-ERK = experiment: Phospho-ERK 1/2 assay, Panc-1 (Table 2); format: cell-based; settings: Homo sapiens; Panc-1 cells
Description: as §4, §5

[6] = test system: p-ERK in PNAC-1/HPAC cell; experiment: Phospho-ERK 1/2 assay (Table 1); format: cell-based; settings: Homo sapiens; PNAC-1/HPAC cell, 3 hours compound incubation; read-out: p-ERK IC50
How it was run: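 Pancreatic cancer cells (PNAC-1/HPAC) treated with compound 3 hours at 37° C, 0.5% DMSO final, then fixed and methanol-permeabilized. In-cell western: rabbit anti-pERK with mouse anti-GAPDH overnight at 4° C, IR-dye secondaries, imaged at 700 and 800 nm.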

[7] = In vivo oral bioavailability assay; settings: Balb/c mice female, IV bolus 1 mg/kg and oral gavage 30 mg/kg, single dose
Description: Single dose following IV bolus (1 mg/kg, 0.2 mg/mL in 1% DMSO, 99% SBE-β-CD (10% w/v) in water) and oral gavage (30 mg/kg, 3 mg/mL in 1% MC in DI water) administration of test compound in Balb/c Mice female. The blood samples were collected at 2 min, 5 min, 10 min, 30 min, 1 hr, 2 hr, 4 hr, 8 hr and 24 hr (additional 32 hr and 48 hr for MRTX1133) after IV bolus, at 15 min, 30 min, 1 hr, 1.5 hr, 2 hr, 3 hr, 4 hr, 8 hr and 24 hr (additional 32 hr and 48 hr for MRTX1133) after PO administration. The plasma concentrations of compounds were determined with UPLC-MS/MS.

Compound | IC50 [1] | IC50 [2] | IC50 [3] | IC50 [4] | IC50 [5] | IC50 (WT-KRAS cell line MKN-1) | Selectivity Fold (WT-KRAS cell line MKN-1) | IC50 (Panc-1 p-ERK) | IC50 [6] | Bioavailability (%) [7] | Fa*Fg (%) [7]
CCc1c(F)ccc2cc(O)cc(-c3nc4c5c(nc(OC[C@@]67CCCN6C[C@H](F)C7)nc5c3F)N3C[C@H]5CC[C@H](N5)[C@H]3CO4)c12 [Compound 28, 5-ethyl-6-fluoro-4-((5aS,6S,9R)-1-fluoro-12-(((2R,7aS)-2-fluorotetrahydro-1H-pyrrolizin-7a(5H)-yl)methoxy)-5a,6,7,8,9,10-hexahydro-5H-4-oxa-3,10a,11,13,14-pentaaza-6,9-methanonaphtho[1,8-ab]heptalen-2-yl)naphthalen-2-ol] | 3.3 nM | 1.2 nM | 35 nM | 25.2 nM | 4.7 nM | 76 nM | 100 Fold | 0.76 nM | 0.76 nM | – | –
Oc1cc(Cl)c(C2CC2)c(-c2nc3c4c(nc(OC[C@@]56CCCN5C[C@H](F)C6)nc4c2F)N2C[C@@H]4CC[C@@H](N4)C2CO3)c1 (stereo partly drawn) [Compound 24, 3-chloro-4-cyclopropyl-5-((6R,9S)-1-fluoro-12-(((2R,7aS)-2-fluorotetrahydro-1H-pyrrolizin-7a(5H)-yl)methoxy)-5a,6,7,8,9,10-hexahydro-5H-4-oxa-3,10a,11,13,14-pentaaza-6,9-methanonaphtho[1,8-ab]heptalen-2-yl)phenol] | 7.1 nM | 2.2 nM | 71 nM | 93 nM | 8.7 nM | – | – | – | 7 nM | – | –
C#Cc1cccc2cccc(-c3nc4c5c(nc(OC[C@@]67CCCN6C[C@H](F)C7)nc5c3F)N3C[C@H]5CC[C@H](N5)[C@H]3CO4)c12 [Compound 25, (5aS,6S,9R)-2-(8-ethynylnaphthalen-1-yl)-1-fluoro-12-(((2R,7aS)-2-fluorotetrahydro-1H-pyrrolizin-7a(5H)-yl)methoxy)-5a,6,7,8,9,10-hexahydro-5H-4-oxa-3,10a,11,13,14-pentaaza-6,9-methanonaphtho[1,8-ab]heptalene] | 76 nM | 23 nM | 516 nM | 80 nM | 54 nM | 754 nM | 75 Fold | 10 nM | 10 nM | 39.2% | 56.6%
C#Cc1c(F)ccc2cccc(-c3nc4c5c(nc(OC[C@@]67CCCN6C[C@H](F)C7)nc5c3F)N3CC5CCC(N5)[C@H]3CO4)c12 (single isomer, unassigned) [Compound 10] | 28 nM | 15 nM | 490 nM | 238 nM | 48 nM | 343 nM | 171 Fold | 2 nM | 2 nM | 37.7% | 54.0%
